Experimental data: patent US4933330A, “Benzoic acid derivatives and use thereof” (priority 1987, dated 1990)

Tests used:
[1] = test system: psoriasis and contact dermatitis; test: Conclusion of clinical testing (psoriasis and contact dermatitis); format: in vivo, patients; conditions: active formulations
Procedure: 1. Patients with wide-spread psoriasis receiving systemic treatment with methotrexate, retinoids or topical treatment with dithranol or tar-preparations. An area of 5×5 cm^2 was used for treatment with compositions 1, 2 and 3 in an increasing concentration. A total of 5 patients were treated on in-patient basis, and the results were evaluated 2-3 times a week.
2. In 3 out of 5 other patients treated with 5-ASA cream under occulsion with a thin plastic film a dramatic effect was seen after 4-6 days.
3. 5% 5-ASA cream and placebo cream was compared in a randomized, double-blind, bilaterial trial with 5 psoriatic in-patients. Two contralateral psoriasis plaques of the same severity were treated for one week with the 5-ASA cream and placebo cream, respectively, with the concomitant use of an occulsive dressing.
4. 5% 4-ASA cream and placebo cream were compared in a randomized, double blind, bilateral trial with 10 psoriasis out-patients. […]
Ten patients with known nickel allergy and 15 patients with known allergy to other compounds were tested with 5% 5-ASA cream and placebo cream in a randomized, double blind, bilateral trial. […] The study areas were occluded with Finn chambers for 48 hours, and the patients' symptoms were recorded. After 72 hours, the patch test reactions were evaluated and the patients' symptoms recorded.

[2] = In vivo absorption of 4-ASA (serum and urine) in healthy volunteers; conditions: for Highest serum levels recalculated to treatment of the whole body, passive and active side: versus 4-ASA perorally in tuberculosis treatment
[3] = In vivo dermal absorption of 5-ASA (serum and urine) in healthy volunteers
Procedure: Serum concentrations and the amount excreted in urine of 5-ASA and the 5-ASA metabolite: […] The study was performed as an open study, divided into the following parts: Part I: 2 volunteers, normal skin, single dose. Part IA: 1 volunteer, stripped skin and 1 volunteer, normal skin and occlusion, single dose. Part IB: 1 volunteer, stripped skin and occlusion, single dose. Part II: 6 volunteers, stripped skin day 1, and occlusion day 1 and day 8, multiple doses. Part I, IA and IB: 0.5 g 5% 5-ASA cream was applied to one forearm of the volunteer and blood samples were taken at intervals for 6 hours from both arms. 24 hour urine samples were collected. […] Blood and urine were collected as described above on day 1 and 8. […] Clinical chemistry tests showing the state of the patient (blood status, liver and kidney function, etc.) were performed before and after the study.

psoriasis plaques = test: Randomized, bilateral trial of 5% 5-ASA cream vs placebo, 48 psoriasis patients; format: in vivo
Procedure: Objective: To compare 5% 5-ASA cream with placebo cream in psoriasis patients.
5% 5-ASA cream and placebo cream were compared in a randomized, bilateral trial with 48 psoriasis patients (24 hospitalized and 24 out-patients). Two contralateral psoriasis plaques (5×5 cm^2 -10×10 cm^2) of the same severity were treated 3 times daily for two weeks (occulsion at night) with the 5-ASA and placebo creams, respectively.
Any reported adverse reactions were noted.
The differences between the "active side" (treated with 5-ASA) and the "placebo side" were statistically tested by a binomial distribution test.

nickel allergy = test: Contact dermatitis/allergy test, patients with nickel allergy; format: in vivo; conditions: 5% 5-ASA cream vs placebo; after 72 hours
Procedure: (§1) Ten patients with known nickel allergy and 15 patients with known allergy to other compounds were tested with 5% 5-ASA cream and placebo cream in a randomized, double blind, bilateral trial. The allergen was applied on two 1×1 cm^2 areas and the study creams were then applied on the left and right 2×2 cm^2 study areas, respectively. The study areas were occluded with Finn chambers for 48 hours, and the patients' symptoms were recorded. After 72 hours, the patch test reactions were evaluated and the patients' symptoms recorded.

[4] = test system: allergy to other compounds; test: Contact dermatitis/allergy test, patients with allergy to other compounds; format: in vivo; conditions: 5% 5-ASA cream vs placebo
Procedure: as §1

[5] = In vitro dermal absorption in Franz Diffusion cells; format: in vitro ADME, human; conditions: for Absorbed amounts, 5-ASA versus prodrug No. 350 / Detection of unchanged prodrug after penetration of the skin / Production of 5-ASA in free form after absorption: human skin in vitro
Procedure: Franz Diffusion cells (FDC) are systems for the measurements of percutaneous absorption by the finite dose technique. Human skin is mounted in specially constructed diffusion chambers (FDC), and the skin is batched from below by a reservoir solution. 3×10 μl solution (1 mg/ml) of the following compounds were applied to human skin in Franz diffusion cells (0.636 cm^2) and kept at 37° C. by thermostatic control: Compound 1=5-ASA […] Samples were taken from the reservoir at intervals for 76 hours and analyzed by HPLC for 5-ASA and the prodrugs themselves.

rat = conditions: intravenously; cited from earlier work
[6] = chronic inflammatory bowel disease; cited from earlier work
[7] = human, serum, topical or ocular, 25 mg
[8] = % of dose through the skin during 76 hours, 3×10 μl of 1 mg/ml, 37° C.
[9] = human, in vivo, topical or ocular

Compound: Nc1ccc(C(=O)O)c(O)c1 [Example 4-ASA, 4-aminosalicylic acid]
- Efficacy vs placebo in comparative trials [1]: more efficient than placebo
- concentration at 0.25 h [2, 7]: 24 ng/mL
- concentration at 0.5 h [2, 7]: 43 ng/mL
- concentration at 1.5 h [2, 7]: 16 ng/mL
- Highest serum levels recalculated to treatment of the whole body, passive and active side [2]: within the values reported after use of 4-ASA perorally in tuberculosis treatment

Compound: CC(=O)Nc1ccc(O)c(C(=O)O)c1 [Ac-5-ASA, 2-Hydroxy-5-acetamidobenzoic acid]
- Amount in urine versus peroral or rectal administration ([3]; human, in vivo): much lower in percentages than after peroral or rectal administration
- Maximum serum concentration recalculated to treatment of the whole body, active side ([3]; human, in vivo): 2-3 times the values reported in studies with SASP
- Maximum serum concentration recalculated to treatment of the whole body, passive side ([3]; human, in vivo): within the values reported in studies with salazosulphapyridine (SASP)
- Recovery in urine ([3]; human, in vivo): Only Ac-5-ASA were recovered in urine
- Median serum concentration ([3]; human, in vivo, topical or ocular, 0.25 h): 13.5 ng/mL
- Median serum concentration ([3]; human, in vivo, topical or ocular, 0.5 h): 7.0 ng/mL
- Median serum concentration ([3]; human, in vivo, topical or ocular, 0.75 h): 10.3 ng/mL
- Median serum concentration ([3]; human, in vivo, topical or ocular, 1.5 h): 14.6 ng/mL
- Median serum concentration ([3]; human, in vivo, topical or ocular, 3 h): 8.2 ng/mL

Compound: Nc1ccc(O)c(C(=O)O)c1 [Example 5-ASA, 5-aminosalicylic acid, reference compound]
- Effect compared to placebo (conclusion) (psoriasis plaques): A significant effect
- Patients showing no difference regarding pruritus (nickel allergy): two
- Patients with preference to 5-ASA regarding pruritus (nickel allergy): Seven out of 10
- Patients with preference to 5-ASA side, investigator's opinion and patch tests (nickel allergy): 9 out of 10
- Preference of patients vs placebo [4]: about twice as many patients preferred the 5-ASA treatment in comparison with placebo
- Efficacy vs placebo in comparative trials [1]: more efficient than placebo
- % absorbed, compound measured: 5-ASA [5, 8]: 7.8-15.6%
- Absorbed amounts, 5-ASA versus prodrug No. 350 [5]: of the same size
- Absorption through normal skin ([3]; 5% 5-ASA cream, normal skin): No absorption through normal skin was detected
- Absorption through occluded skin ([3]; 5% 5-ASA cream, occluded skin, late): Small amounts
- Absorption through both stripped and occluded skin ([3]; 5% 5-ASA cream, stripped and occluded skin): larger amounts
- Absorption through stripped skin ([3]; 5% 5-ASA cream, stripped skin, early): Small amounts
- Maximum serum concentration recalculated to treatment of the whole body, active side ([3]; human, in vivo): 2-3 times the values reported in studies with SASP
- Maximum serum concentration recalculated to treatment of the whole body, passive side ([3]; human, in vivo): within the values reported in studies with salazosulphapyridine (SASP)
- concentration at 0.25 h [3, 9]: 19.4 ng/mL
- concentration at 0.5 h [3, 9]: 8.3 ng/mL
- concentration at 0.75 h [3, 9]: 7.3 ng/mL
- concentration at 1 h [3, 9]: 8.2 ng/mL
- concentration at 1.5 h [3, 9]: 7.1 ng/mL
- concentration at 2 h [3, 9]: 3.9 ng/mL
- concentration at 4 h [3, 9]: 17.2 ng/mL
- concentration at 6 h [3, 9]: 22.9 ng/mL
- Nephrotoxic dose (rat): 300 to 900 mg/kg

Compound: CCOC(=O)c1cc(N)ccc1OC(C)=O [Prodrug No. 350, Ethyl 2-acetoxy-5-aminobenzoate]
- % absorbed, compound measured: 5-ASA [5, 8]: 11.9-16.8%
- Absorbed amounts, 5-ASA versus prodrug No. 350 [5]: of the same size
- Detection of unchanged prodrug after penetration of the skin [5]: could not be detected unchanged
- Production of 5-ASA in free form after absorption [5]: could produce 5-ASA in free form after absorption through human skin in vitro

Compound: CCOC(=O)c1cc(N)ccc1O [Prodrug No. 345, Ethyl 2-hydroxy-5-aminobenzoate]
- % absorbed, compound measured: 5-ASA [5, 8]: 18.2-24.0%
- % absorbed, compound measured: prodrug itself [5, 8]: 36.1-45.4%
- Enhanced absorption, % of the dose ([5]; as much as, 76 hours): ≤ 70 % of the dose
- Detection of unchanged prodrug after penetration of the skin [5]: detected unchanged after penetration of the skin
- Production of 5-ASA in free form after absorption [5]: could produce 5-ASA in free form after absorption through human skin in vitro

Compound: Nc1ccc(S(=O)(=O)Nc2ccccn2)cc1 [Sulphapyridine]
- Side effects after treatment with salazosulphapyridine [6]: responsible for the side effects reported after treatment with salazosulphapyridine

Compound: CC(=O)Nc1ccc(C(=O)O)c(O)c1 [Ac-4-ASA, N-acetyl-4-aminosalicylic acid]
- Highest serum levels recalculated to treatment of the whole body, passive and active side [2]: within the values reported after use of 4-ASA perorally in tuberculosis treatment
- Amount in urine ([2]; versus peroral administration): very small amounts in urine
